From ChEMBL document CHEMBL1201862, “PubChem BioAssay data set” (2004)
Active and inactive are the calls of the source.

What was measured:
[1] = biological target: Lysosomal acid glucosylceramidase (Homo sapiens, UniProt P04062); assay: Dose response cell-based high throughput screening assay to identify enhancers of beta-glucosidase activity. [Related pubchem assays: 784 ]; assay type: functional
Aspartyl aminopeptidase = Aspartyl aminopeptidase (Plasmodium falciparum 3D7, UniProt Q8I2J3)
[2] = biological target: T1, Heat shock factor protein 1 (Mus musculus, UniProt P38532); assay: inhibition of MG132-induced HSE-luciferase signal, confirmation, cell-based, NIH3T3, luminescence, dose retest (AID 2382); assay type: functional;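 note: NIH3T3 fibroblasts with HSF1-driven luciferase reporter stressed by proteasome inhibitor MG132; luminescence from HSF1-driven luciferase expression after 8 hours of MG132 stress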
T1 sequence (P38532 whole entry): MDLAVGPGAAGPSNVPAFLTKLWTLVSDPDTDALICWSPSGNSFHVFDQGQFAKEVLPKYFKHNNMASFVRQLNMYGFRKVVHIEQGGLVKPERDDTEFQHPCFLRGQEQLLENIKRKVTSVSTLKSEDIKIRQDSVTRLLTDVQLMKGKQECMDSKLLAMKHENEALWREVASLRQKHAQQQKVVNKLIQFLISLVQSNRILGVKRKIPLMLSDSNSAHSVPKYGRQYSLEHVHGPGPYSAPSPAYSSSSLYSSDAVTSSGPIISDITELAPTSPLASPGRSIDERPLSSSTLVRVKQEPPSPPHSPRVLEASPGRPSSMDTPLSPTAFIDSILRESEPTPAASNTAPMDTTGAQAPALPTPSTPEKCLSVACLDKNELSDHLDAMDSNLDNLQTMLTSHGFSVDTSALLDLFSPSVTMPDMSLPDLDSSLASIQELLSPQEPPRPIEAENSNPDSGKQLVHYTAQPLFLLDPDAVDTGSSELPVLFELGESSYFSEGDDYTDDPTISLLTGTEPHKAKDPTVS

Procathepsin L = Procathepsin L (Homo sapiens, UniProt P07711)
[3] = biological target: Peroxisome proliferator-activated receptor gamma/Nuclear receptor coactivator 2 (Homo sapiens, UniProt P37231); assay: (§1) TR-FRET dose response biochemical High Throughput Screening assay for agonists of the steroid receptor coactivator 2 (SRC-2) recruitment by the peroxisome proliferator-activated receptor gamma (PPAR gamma): non-selective agonists. [Related pubchem assays: 1297, 1032 ]; assay type: functional
[4] = biological target: Peroxisome proliferator-activated receptor gamma/Nuclear receptor coactivator 3 (Homo sapiens, UniProt P37231); assay: as §1, with “3 (SRC-3)” for “2 (SRC-2)”, “1301 (Confirmation screen.), 1048 (Primary screen.)]” for “1297, 1032 ]”; assay type: functional
Leucine aminopeptidase = biological target: T2, Leucine aminopeptidase (Plasmodium falciparum 3D7, UniProt Q8IL11); assay: P. falciparum M17LAP inhibitors, primary screen, biochemical, fluorogenic H-Leu-NHMec substrate, 1536-well (AID 1619); assay type: functional
T2 sequence (Q8IL11 whole entry): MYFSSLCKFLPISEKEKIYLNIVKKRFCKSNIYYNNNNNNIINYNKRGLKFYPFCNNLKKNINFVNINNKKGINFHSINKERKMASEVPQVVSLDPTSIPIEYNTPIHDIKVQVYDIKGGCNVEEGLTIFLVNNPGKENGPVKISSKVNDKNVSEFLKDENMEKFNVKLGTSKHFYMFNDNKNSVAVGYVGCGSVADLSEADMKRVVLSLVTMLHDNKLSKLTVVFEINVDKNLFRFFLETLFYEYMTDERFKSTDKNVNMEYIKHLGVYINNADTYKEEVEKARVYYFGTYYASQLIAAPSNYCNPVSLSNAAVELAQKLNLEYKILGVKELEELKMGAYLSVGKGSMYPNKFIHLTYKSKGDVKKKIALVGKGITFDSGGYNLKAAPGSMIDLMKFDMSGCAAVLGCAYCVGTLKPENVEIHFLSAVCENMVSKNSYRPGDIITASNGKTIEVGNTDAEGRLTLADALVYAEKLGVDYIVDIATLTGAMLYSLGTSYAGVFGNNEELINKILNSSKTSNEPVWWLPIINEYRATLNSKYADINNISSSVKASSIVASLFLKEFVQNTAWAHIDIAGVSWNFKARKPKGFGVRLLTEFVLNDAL

[5] = biological target: Peroxisome proliferator-activated receptor gamma/Nuclear receptor coactivator 1 (Homo sapiens, UniProt P37231); assay: as §1, with “1 (SRC-1)” for “2 (SRC-2)”, “assays (depositor defined):AID1300, AID1808, AID504735, AID631]” for “assays: 1297, 1032 ]”; assay type: protein assay
[6] = biological target: Photoreceptor-specific nuclear receptor (Homo sapiens, UniProt Q9Y5X4); assay type: functional;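 note: potency for compounds that break the NR2E3 corepressor complex and count as activators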
[7] = biological target: Peroxisome proliferator-activated receptor gamma/Nuclear receptor corepressor 2 (Homo sapiens, UniProt P37231+Q9Y618); assay type: functional
[8] = biological target: Acyl-homoserine lactone acylase PvdQ (Pseudomonas aeruginosa (strain LESB58), UniProt Q9I194); assay: P. aeruginosa PvdQ acylase inhibitors, dose response, biochemical, fluorescence, plate reader and imaging, cherry-picks (AID 493231)
Cytochrome P450 3A4 = Cytochrome P450 3A4 (Homo sapiens, UniProt P08684); details: Potency;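 note: confirmatory qHTS run detecting inhibitors and substrates of CYP3A4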
[9] = THP-1 cell cytotoxicity, dose response, cytotoxicity control for non-replicating M. tuberculosis project (AID 489025); assay type: functional
cells = assay type: functional
Exodeoxyribonuclease V = biological target: T3, Exodeoxyribonuclease V (Escherichia coli (strain K12), UniProt P04993+P07648+P08394); assay: E. coli RecBCD inhibitors, dose response, counter-screen for AddAB inhibitor project, absorbance, V66 E. coli, mutant T4 phage (AID 492957); assay type: functional, cell-based, Escherichia coli str. K-12 substr. MG1655
T3 sequence (P04993 whole entry): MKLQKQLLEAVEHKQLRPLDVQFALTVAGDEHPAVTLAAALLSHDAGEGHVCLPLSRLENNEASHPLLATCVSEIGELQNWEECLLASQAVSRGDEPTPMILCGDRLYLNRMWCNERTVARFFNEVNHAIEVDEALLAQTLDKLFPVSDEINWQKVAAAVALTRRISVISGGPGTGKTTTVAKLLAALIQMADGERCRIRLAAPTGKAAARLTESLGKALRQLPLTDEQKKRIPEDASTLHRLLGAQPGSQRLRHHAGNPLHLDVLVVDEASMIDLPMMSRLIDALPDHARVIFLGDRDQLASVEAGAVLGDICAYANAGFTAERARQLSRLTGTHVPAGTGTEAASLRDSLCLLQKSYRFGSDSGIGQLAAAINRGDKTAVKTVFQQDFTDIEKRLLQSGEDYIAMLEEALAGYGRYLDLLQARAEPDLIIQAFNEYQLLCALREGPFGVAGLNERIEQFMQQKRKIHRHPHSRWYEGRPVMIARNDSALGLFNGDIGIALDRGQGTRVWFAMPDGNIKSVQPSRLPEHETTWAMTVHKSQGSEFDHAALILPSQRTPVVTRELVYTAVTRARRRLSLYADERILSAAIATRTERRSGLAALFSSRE
T3 sequence (P07648 whole entry): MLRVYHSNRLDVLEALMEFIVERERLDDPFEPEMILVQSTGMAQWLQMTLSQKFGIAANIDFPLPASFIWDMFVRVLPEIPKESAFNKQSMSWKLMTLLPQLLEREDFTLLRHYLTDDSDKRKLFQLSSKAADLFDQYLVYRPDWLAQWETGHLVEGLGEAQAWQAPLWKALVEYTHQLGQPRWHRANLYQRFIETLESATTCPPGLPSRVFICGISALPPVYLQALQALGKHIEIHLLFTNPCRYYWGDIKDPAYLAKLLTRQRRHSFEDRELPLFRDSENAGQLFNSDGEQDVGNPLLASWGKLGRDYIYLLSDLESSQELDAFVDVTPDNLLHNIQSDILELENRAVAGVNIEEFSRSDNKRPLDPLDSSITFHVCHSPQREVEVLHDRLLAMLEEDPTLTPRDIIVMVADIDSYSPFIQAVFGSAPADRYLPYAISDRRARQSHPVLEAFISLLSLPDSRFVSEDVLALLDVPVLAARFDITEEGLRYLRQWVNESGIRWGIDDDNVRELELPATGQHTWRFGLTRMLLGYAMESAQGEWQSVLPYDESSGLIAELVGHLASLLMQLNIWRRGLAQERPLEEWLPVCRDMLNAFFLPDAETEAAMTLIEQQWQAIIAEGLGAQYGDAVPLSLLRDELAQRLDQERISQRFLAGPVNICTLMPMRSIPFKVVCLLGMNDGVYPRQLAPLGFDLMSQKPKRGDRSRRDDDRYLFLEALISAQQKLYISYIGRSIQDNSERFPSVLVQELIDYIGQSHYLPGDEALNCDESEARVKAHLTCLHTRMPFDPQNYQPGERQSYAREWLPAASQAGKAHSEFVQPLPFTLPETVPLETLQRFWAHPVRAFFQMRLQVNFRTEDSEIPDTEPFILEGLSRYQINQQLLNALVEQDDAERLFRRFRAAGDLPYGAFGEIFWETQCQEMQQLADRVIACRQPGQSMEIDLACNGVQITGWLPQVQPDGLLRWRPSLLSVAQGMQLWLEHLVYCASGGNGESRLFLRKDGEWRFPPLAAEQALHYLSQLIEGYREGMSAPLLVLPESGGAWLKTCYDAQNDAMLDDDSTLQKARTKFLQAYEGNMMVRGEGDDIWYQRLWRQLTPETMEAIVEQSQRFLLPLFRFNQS
T3 sequence (P08394 whole entry): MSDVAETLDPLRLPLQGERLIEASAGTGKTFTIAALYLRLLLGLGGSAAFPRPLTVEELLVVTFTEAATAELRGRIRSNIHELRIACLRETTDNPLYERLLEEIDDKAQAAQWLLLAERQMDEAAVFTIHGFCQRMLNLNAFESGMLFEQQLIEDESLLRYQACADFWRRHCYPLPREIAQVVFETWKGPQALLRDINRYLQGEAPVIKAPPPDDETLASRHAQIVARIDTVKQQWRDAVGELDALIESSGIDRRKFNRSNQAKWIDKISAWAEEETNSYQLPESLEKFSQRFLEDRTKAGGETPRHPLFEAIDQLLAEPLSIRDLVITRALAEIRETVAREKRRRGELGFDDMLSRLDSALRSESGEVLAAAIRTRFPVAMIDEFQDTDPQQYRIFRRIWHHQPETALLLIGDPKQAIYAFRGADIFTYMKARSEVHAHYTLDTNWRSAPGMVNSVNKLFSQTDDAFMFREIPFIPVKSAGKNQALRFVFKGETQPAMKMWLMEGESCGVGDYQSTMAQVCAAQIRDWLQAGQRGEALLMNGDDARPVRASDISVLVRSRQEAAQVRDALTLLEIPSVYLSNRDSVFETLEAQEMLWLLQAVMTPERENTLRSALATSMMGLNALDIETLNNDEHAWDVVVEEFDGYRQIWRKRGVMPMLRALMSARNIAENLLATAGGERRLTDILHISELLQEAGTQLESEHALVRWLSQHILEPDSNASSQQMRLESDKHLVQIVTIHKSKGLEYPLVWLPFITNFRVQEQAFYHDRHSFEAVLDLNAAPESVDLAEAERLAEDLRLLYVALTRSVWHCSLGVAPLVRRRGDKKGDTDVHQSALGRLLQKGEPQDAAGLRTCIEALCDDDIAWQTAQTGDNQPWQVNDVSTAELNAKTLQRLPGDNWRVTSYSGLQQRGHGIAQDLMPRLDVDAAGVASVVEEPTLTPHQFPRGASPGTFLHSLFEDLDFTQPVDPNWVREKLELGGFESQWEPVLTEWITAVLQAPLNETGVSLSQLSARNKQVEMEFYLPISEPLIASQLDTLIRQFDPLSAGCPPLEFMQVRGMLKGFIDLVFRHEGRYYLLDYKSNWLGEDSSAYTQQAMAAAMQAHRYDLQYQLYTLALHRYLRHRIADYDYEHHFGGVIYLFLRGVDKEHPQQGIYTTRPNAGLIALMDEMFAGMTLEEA

[10] = Counterscreen for AddAB inhibitors: absorbance-based bacterial cell-based high throughput dose response assay for inhibitors of bacterial viability. [Related pubchem assays (depositor defined):AID435030, AID449728, AID449731, AID488942, AID488955, AID488956]; assay type: functional
[11] = biological target: Polyadenylate-binding protein 1 (Homo sapiens, UniProt P11940); assay: PABP poly(A) RNA binding inhibitors, primary screen, biochemical, fluorescence polarization, uHTS (AID 2014)
[12] = biological target: Eukaryotic translation initiation factor 4H (Homo sapiens, UniProt Q15056); assay: human eIF4H binding inhibitors, primary screen, translation initiation inhibitor project, biochemical, uHTS, fluorescence polarization (AID 2012)
Cytochrome P450 2C9 = Cytochrome P450 2C9 (Homo sapiens, UniProt P11712); details: Potency

Cytochrome P450 3A4, sequence (P08684 whole entry): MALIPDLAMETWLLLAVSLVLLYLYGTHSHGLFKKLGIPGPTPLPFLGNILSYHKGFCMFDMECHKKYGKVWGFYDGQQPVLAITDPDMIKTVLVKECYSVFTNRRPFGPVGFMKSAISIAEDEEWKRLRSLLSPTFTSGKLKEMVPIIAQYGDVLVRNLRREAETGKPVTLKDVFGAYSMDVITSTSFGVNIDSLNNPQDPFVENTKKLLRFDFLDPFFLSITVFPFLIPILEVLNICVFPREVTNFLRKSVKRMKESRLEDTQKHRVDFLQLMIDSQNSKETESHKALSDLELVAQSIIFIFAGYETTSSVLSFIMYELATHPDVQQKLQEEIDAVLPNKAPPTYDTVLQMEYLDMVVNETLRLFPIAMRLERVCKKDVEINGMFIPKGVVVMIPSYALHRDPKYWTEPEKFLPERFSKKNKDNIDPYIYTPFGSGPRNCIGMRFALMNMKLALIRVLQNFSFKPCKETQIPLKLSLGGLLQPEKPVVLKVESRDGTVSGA
Lysosomal acid glucosylceramidase, sequence (P04062 whole entry): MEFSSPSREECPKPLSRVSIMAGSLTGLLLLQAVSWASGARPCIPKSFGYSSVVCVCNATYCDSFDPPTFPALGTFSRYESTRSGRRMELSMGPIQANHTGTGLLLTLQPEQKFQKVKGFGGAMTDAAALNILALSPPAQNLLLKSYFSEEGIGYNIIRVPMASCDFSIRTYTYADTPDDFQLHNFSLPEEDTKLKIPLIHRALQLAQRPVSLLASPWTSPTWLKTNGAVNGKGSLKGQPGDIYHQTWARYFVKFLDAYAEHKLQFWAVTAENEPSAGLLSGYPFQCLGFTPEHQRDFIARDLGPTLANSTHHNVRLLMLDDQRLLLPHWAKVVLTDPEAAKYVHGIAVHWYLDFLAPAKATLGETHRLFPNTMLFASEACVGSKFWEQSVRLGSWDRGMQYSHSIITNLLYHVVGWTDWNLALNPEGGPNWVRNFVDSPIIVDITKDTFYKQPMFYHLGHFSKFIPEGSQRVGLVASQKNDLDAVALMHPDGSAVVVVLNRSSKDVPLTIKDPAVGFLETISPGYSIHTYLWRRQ
Polyadenylate-binding protein 1, sequence (P11940 whole entry): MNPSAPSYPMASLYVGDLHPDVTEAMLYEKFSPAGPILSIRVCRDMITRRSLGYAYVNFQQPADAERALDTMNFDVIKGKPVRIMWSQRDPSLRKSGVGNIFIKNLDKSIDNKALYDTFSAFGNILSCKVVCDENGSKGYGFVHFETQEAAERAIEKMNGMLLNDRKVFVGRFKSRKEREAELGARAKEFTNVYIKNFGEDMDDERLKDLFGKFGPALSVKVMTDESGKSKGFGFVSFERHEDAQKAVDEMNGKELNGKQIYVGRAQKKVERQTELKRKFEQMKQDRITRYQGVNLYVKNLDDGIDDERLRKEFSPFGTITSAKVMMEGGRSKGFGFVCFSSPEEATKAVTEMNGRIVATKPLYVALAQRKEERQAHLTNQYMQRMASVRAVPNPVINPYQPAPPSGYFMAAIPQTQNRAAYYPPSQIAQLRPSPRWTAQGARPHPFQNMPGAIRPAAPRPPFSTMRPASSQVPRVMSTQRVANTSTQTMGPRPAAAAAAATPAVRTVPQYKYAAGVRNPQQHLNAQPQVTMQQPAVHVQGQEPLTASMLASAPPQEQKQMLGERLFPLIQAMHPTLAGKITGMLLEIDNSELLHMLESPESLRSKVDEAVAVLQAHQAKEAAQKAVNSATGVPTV
Aspartyl aminopeptidase, sequence (Q8I2J3 whole entry): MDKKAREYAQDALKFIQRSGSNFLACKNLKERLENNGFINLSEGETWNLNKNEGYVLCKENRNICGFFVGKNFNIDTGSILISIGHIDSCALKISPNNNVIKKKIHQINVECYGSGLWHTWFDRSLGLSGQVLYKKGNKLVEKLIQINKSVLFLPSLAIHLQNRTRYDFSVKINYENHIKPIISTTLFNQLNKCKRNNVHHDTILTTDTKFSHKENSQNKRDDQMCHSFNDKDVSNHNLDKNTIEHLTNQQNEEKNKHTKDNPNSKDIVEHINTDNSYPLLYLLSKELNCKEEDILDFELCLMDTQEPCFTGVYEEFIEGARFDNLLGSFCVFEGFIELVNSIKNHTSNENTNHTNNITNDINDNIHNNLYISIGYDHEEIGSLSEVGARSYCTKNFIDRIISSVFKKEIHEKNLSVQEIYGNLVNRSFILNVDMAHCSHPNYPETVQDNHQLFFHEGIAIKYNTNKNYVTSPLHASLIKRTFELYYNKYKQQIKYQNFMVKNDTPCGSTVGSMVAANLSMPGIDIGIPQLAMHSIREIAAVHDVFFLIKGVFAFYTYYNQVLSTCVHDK
Photoreceptor-specific nuclear receptor, sequence (Q9Y5X4 whole entry): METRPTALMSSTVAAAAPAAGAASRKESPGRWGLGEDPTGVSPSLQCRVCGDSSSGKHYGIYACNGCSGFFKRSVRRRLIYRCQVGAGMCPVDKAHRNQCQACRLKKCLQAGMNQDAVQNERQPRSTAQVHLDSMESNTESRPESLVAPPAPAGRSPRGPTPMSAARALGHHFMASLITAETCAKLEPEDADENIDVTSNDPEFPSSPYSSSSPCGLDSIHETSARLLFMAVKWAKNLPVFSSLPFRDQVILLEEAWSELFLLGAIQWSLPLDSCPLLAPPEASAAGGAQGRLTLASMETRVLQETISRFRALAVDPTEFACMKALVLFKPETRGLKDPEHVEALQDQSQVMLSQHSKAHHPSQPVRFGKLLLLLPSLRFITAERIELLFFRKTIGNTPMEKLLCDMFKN
Peroxisome proliferator-activated receptor gamma/Nuclear receptor coactivator 2, sequence (P37231 whole entry): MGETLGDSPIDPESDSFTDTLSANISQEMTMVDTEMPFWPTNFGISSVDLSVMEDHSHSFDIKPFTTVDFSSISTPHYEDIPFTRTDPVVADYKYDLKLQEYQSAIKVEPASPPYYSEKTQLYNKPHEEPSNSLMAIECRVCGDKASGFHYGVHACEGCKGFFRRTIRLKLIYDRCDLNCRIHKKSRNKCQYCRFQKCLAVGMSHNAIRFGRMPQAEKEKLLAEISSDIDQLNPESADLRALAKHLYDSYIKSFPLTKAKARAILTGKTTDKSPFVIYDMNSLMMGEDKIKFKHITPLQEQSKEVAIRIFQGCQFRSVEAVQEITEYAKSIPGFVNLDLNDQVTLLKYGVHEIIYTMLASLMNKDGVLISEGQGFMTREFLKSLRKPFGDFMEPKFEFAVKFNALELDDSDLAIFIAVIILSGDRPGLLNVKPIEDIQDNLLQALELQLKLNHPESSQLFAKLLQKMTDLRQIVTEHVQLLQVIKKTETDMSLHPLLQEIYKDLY
Peroxisome proliferator-activated receptor gamma/Nuclear receptor coactivator 2, sequence (Q15596 whole entry, further chain): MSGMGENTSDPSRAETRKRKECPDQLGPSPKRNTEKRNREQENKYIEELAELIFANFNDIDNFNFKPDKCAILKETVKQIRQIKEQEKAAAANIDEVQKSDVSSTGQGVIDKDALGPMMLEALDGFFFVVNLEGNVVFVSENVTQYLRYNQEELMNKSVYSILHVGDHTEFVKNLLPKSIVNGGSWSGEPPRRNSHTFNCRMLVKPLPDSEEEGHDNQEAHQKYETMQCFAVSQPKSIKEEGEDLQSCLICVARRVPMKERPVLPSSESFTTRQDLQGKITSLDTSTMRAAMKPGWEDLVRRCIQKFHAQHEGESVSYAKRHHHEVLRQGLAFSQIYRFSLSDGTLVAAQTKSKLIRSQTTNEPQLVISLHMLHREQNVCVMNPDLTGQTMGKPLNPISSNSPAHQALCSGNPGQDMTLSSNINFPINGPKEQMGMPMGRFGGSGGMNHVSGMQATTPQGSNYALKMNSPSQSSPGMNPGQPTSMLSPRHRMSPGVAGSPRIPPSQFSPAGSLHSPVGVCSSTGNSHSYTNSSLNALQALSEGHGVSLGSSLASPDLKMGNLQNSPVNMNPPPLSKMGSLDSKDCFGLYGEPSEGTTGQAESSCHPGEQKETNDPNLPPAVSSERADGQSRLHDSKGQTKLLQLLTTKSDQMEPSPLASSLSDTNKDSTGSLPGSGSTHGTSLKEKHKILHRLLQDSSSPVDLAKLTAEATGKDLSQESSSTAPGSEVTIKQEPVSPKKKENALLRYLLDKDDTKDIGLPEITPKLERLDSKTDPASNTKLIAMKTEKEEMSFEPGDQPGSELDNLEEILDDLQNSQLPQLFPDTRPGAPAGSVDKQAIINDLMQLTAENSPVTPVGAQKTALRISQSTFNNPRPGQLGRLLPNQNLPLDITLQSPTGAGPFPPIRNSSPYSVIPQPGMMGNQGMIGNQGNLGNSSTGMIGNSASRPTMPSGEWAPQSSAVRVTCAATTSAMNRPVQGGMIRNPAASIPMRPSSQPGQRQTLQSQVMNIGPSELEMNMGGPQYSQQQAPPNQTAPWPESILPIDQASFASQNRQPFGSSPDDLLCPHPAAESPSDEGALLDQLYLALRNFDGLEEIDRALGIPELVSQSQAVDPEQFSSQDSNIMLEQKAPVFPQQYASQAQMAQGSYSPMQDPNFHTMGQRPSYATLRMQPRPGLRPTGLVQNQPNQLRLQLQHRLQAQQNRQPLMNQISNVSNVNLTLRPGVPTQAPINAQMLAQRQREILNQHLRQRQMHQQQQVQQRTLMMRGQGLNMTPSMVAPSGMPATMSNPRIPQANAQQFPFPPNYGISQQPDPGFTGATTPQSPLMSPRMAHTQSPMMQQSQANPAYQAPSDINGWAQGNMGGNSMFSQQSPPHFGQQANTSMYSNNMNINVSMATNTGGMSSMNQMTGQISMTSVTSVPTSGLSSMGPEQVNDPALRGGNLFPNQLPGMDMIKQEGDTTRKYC

## Cc1cccn2c(=O)c(/C=N/c3ccc(Cl)cc3)c(NCCO)nc12
[1]
  EC50: > 50 µM (not active)

## Cc1c(C(=O)c2no[n+]([O-])c2C(=O)c2cnn(C)c2C)cnn1C
Aspartyl aminopeptidase
  IC50: 1.58 µM (active)
[2]
  EC50: 5.9 µM (active)
Procathepsin L
  IC50: > 59.6 µM (not active)

## Cn1c(=S)[nH]c2c(c1=O)C(C)(C)Cc1ccccc1-2
[3]
  EC50: > 79.4 µM (not active)
[4]
  EC50: > 79.4 µM (not active)
Leucine aminopeptidase
  IC50: 1.9 µM (active)
[5]
  EC50: > 79.4 µM (inactive)
[6]
  IC50: > 39.8 µM (not active)
[7]
  IC50: 3.98 µM (active)

## CCOC(=O)c1ccc(N2Cc3ccccc3C2)cc1O
[8]
  AC50: > 100 µM (inactive)

## Nc1ccc(Cl)cc1Cl
Cytochrome P450 3A4
  AC50: 31.6 µM (inconclusive)

## NC(=NOC(=O)c1ccc(Cl)cc1)c1ncc([N+](=O)[O-])s1
[9]
  CC50: > 40 µM (active)
cells
  IC50: 19.2 µM (active)
Exodeoxyribonuclease V
  IC50: > 119 µM (inactive)
[10]
  IC50: 118 µM (inactive)

## Cn1c(SCC(=O)NC(C)(C)C)nnc1-c1cccc(NC(=O)c2ccccc2F)c1
[11]
  IC50: 7.07 µM (active)
[12]
  IC50: > 100 µM (inactive)

## C[C@]12C=CC(=O)C=C1CC[C@@H]1[C@H]3C[C@@H](O)[C@](O)(C(=O)CO)[C@]3(C)C[C@H](O)[C@]12F
Cytochrome P450 2C9
  AC50: 25.1 µM (inconclusive)
